# Test results as given in patent publication US20190054070A1, “Methods and Compositions for Regenerative Synaptogenesis” (priority 2017, published 2019).
# Assays:
# [1] = system: cultured hippocampal neurons; assay: Dendritic spine morphology of GFP-Actin transfected neurons by confocal microscopy; type: cell-based, rat; conditions: for spine head width: untreated 0.753±0.038 μm; for spine length: untreated 1.819±0.064 μm; for spine density: untreated 4.58±0.43
# Protocol: (§1) Cultures of dissociated hippocampal neurons from embryonic day 18 rats were prepared as previously described (51). Cultured neurons at 10 days in vitro (DIV) were exposed to arginine N-methyltransferase inhibitor-1 (AMI-1; 2.5 or 10 μM, Enzo Life Sciences) in plating media minus additional glutamate for the indicated times.
# (§2) To identify the effects of genetic knock-down of CARM1 on dendritic morphology and synaptic clustering of synapsin, NR2B, and PSD-95, hippocampal neurons were first transfected with the construct pCAG-mGFP-Actin [a gift from Ryohei Yasuda (Addgene plasmid #21948)] at 7 DIV with Lipofectamine 2000 (Invitrogen) following the manufacturer's protocol. After a 2-day incubation, neurons were untreated or transduced with rat CARM1- or PRMT1-specific siRNA or scrambled control siRNA lentiviral particles (5×10^3 viral particles/μl, Santa Cruz) at a multiplicity of infection (MOI) of 4 to ensure efficient infection following the manufacturer's protocol, followed by overnight incubation. After a media change with plating media minus glutamate, cells were incubated for an additional 4 days, and then a portion of the cells was either lysed and used for total RNA isolation and RT-qPCR experiments, lysed and used for immunoblot analysis, or fixed for immunocytochemical analysis.
# (§3) Cultures neurons were treated as described above and then fixed in 2% paraformaldehyde/4% sucrose/PBS for 10 min at room temperature (RT) followed by methanol for 20 min at −20° C. The fixed neurons were incubated in preblock buffer (20 mM phosphate buffer, pH 7.4, 5% normal goat serum, 0.05% Triton X-100, and 450 mM NaCl) at 4° C. overnight with the following primary antibodies: mouse anti-CARM1 (1:200, Cell Signaling), rabbit anti-CARM1 (1:200, Cell Signaling), rabbit anti-NR2B (1:200, Millipore), mouse anti-NR2B (1:150, Thermo Fisher), mouse anti-PSD-95 (1:100, Cell Signaling), mouse anti-synapsin (1:200, Santa Cruz), or rabbit anti-synapsin (1:250, Millipore), followed by incubation with the appropriate secondary antibodies (Alexa 488-anti-rabbit or 546-anti-mouse; each at 1:1000, Invitrogen) in preblock buffer at RT for 1 hr. After immunostaining, the cells were mounted as previously described (50) and viewed on a Zeiss LSM 710 laser-scanning confocal microscope. Images were acquired under a 63× or 100× oil immersion objective lens and scanned for further analysis.
# (§4) Confocal microscope images for each treatment from each of 3 independent sets of experiments were imported into Image J (NIH) software. To determine the proportion of CARM1 signal that co-localizes with PSD-95 or synapsin, Image J (NIH) software was used with Just Another Colocalization (JACoP) plugin set. A Mander's coefficient was calculated and the average value (N=10) was further analyzed. Dendritic spine length (from dendritic shaft to the top of spine head) and dendritic spine width (diameter of the widest part of spine head) were measured and dendritic spine density (number of spines/10 μm of dendrite) was also counted. Dendritic spine shape (stubby, mushroom, or filopodium) was identified as described in previous research (5, 21). After measuring spine length (the distance from the base of the neck to the furthest point on the spine heads) and diameter of spine head and neck, the ratio from each spine was calculated and compared. […] Mushroom spines were judged if the diameter of the head was three times larger than the diameter of their necks. Stubby spines were judged if the diameter of the neck was similar to the total length of the spine.
# [2] = system: cultured hippocampal neurons; assay: Synaptic clustering of NR2B, PSD-95 and synapsin by immunocytochemistry; type: cell-based, rat; conditions: 10 μM for 4 days from 10 DIV; compared to untreated cells
# Protocol: as §1, §2, §3, §4
# HuD-mRNA binding = conditions: hippocampal neurons in vitro; previous studies (ref. 22); cited from earlier work
# [3] = inhibitor treatment for 4 days, compared with untreated
smiles,measurement,setting,value
"O=C(Nc1ccc2c([O-])cc(S(=O)(=O)[O-])cc2c1)Nc1ccc2c([O-])cc(S(=O)(=O)[O-])cc2c1.[Na+].[Na+].[Na+].[Na+] [AMI-1, 7,7′-(carbonylbis(azanediyl))bis(4-oxidonaphthalene-2-sulfonate), sodium salt]",spine head width,[1]; 2.5 μM for 4 days from 10 DIV,0.899±0.052 μm
same,spine length,[1]; 2.5 μM for 4 days from 10 DIV,1.748±0.093 μm
same,spine density,[1]; 2.5 μM for 4 days from 10 DIV,4.49±0.54 spines per 10 μm dendrite
same,spine head width,"[1]; 10 μM for 4 days from 10 DIV, P=0.0085",0.982±0.044 μm
same,spine length,"[1]; 10 μM for 4 days from 10 DIV, not statistically significant",1.634±0.072 μm
same,spine density,"[1]; 10 μM for 4 days from 10 DIV, no significant difference",5.54±0.62 spines per 10 μm dendrite
same,"proportion of filopodia-type, including thin-type, spines",[1]; [3],dramatic decrease
same,proportion of mushroom-type spines,[1]; [3],significantly increased
same,NR2B number of clusters,[2],increase
same,NR2B synaptic cluster size,[2],increase
same,PSD-95 number of clusters,[2],increase
same,PSD-95 synaptic cluster size,[2],increase
same,synapsin synaptic cluster number,[2],no difference
same,synapsin synaptic cluster size,[2],no difference
same,"HuD-mRNA binding and the stability and expression of NTFs, including BDNF",HuD-mRNA binding,increased
